Laboratory results reported in patent US8440710B2, “HSL inhibitors useful in the treatment of diabetes” (Hoffmann-La Roche Inc., priority 2009, dated 2013).
pIC50: −log10 of the molar value.

Target: T1, human HSL (Homo sapiens, UniProt Q05469)
T1 construct: generate a full length human HSL ORF with a 3′-His6 tag; made in house; host or cells: High 5 insect cells (baculovirus, pFast-BAC)
T1 sequence (Q05469 1-1076): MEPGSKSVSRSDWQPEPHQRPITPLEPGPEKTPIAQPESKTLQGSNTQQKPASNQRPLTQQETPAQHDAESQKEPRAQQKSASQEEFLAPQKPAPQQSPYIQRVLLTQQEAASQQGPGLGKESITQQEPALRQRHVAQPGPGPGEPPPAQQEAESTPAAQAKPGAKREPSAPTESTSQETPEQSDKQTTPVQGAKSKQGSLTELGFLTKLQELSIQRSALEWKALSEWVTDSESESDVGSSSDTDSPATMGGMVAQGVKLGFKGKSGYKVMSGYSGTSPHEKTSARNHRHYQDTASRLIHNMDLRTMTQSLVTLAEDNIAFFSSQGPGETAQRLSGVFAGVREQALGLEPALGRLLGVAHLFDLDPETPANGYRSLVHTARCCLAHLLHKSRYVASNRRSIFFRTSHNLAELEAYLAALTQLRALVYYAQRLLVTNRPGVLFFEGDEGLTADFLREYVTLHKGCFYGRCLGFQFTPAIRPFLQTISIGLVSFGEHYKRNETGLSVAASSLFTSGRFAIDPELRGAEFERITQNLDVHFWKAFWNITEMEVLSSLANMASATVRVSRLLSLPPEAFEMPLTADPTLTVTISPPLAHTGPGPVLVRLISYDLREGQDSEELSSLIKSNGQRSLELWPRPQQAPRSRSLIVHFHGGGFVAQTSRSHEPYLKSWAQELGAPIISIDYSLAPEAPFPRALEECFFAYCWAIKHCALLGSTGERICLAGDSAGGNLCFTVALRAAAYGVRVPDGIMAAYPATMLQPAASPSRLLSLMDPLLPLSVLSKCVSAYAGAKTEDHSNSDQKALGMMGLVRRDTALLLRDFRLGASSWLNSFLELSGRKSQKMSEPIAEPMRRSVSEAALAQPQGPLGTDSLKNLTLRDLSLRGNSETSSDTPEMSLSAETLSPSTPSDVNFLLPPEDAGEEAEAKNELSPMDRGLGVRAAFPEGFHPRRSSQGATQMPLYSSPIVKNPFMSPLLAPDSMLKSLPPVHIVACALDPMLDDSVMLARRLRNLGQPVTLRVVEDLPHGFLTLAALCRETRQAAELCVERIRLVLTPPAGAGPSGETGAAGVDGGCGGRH
Assay: Human Hormone-Sensitive Lipase (HSL) enzyme inhibition assay (colorimetric, DMPT substrate)
Assay type: biochemical
Settings: human full length HSL-His6, 2,3-dimercapto-1-propanol tributyrate substrate, 37° C. 20 minutes, absorbance at 405 nm; read-out: HSL hum IC50
Procedure, shortened: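 Full-length human HSL with C-terminal His6, expressed in baculovirus-infected High 5 cells and Ni-NTA purified, was added (15 ug/ml stock) to 1.5 mM DMPT in 100 mM MOPS pH 7.2, 0.2 mg/ml fatty acid-free BSA containing compound. After 20 min at 37 °C, DTNB with SDS/Triton X-100 was added; A405 read after 15 min at RT.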

Structure (SMILES) | pIC50
CC(C)[C@]1(O)CC[C@@]2(CCN(c3ccc(O[C@@H](C)C(F)(F)F)nc3)C2=O)CC1 [Example 149, (5α,8β)-8-Hydroxy-8-isopropyl-2-[6-((S)-2,2,2-trifluoro-1-methyl-ethoxy)pyridin-3-yl]-2-aza-spiro[4.5]decan-1-one] | 5.78
CC(C)[C@]1(O)CC[C@@]2(CCN(c3ccc(O[C@H](C)C(F)(F)F)nc3)C2=O)CC1 [Example 151, (5α,8β)-8-Hydroxy-8-isopropyl-2-[6-((R)-2,2,2-trifluoro-1-methyl-ethoxy)pyridin-3-yl]-2-aza-spiro[4.5]decan-1-one] | 5.73
COC[C@]1(O)CC[C@]2(CCN(c3ccc(O[C@H](C)C(F)(F)F)nc3)C2=O)CC1 [Example 152, (5α,8α)-8-Hydroxy-8-methoxymethyl-2-[6-((R)-2,2,2-trifluoro-1-methyl-ethoxy)-pyridin-3-yl]-2-aza-spiro[4.5]decan-1-one] | 7.30
COC[C@]1(O)CC[C@]2(CCN(c3ccc(O[C@@H](C)C(F)(F)F)nc3)C2=O)CC1 [Example 153, (5α,8α)-8-Hydroxy-8-methoxymethyl-2-[6-((S)-2,2,2-trifluoro-1-methyl-ethoxy)-pyridin-3-yl]-2-aza-spiro[4.5]decan-1-one] | 7.30
CN(C)C(=O)C[C@]1(O)CC[C@]2(CCN(c3ccc(OC(F)(F)F)cc3)C2=O)CC1 [Example 156, 2-[(5α,8α)-8-Hydroxy-1-oxo-2-(4-trifluoromethoxy-phenyl)-2-aza-spiro[4.5]dec-8-yl]-N,N-dimethyl-acetamide] | 7.22
CN(C)C(=O)C[C@]1(O)CC[C@]2(CCN(c3ccc(OCC(F)(F)F)cc3)C2=O)CC1 [Example 157, 2-((5α,8α)-8-Hydroxy-1-oxo-2-(4-(2,2,2-trifluoroethoxy)phenyl)-2-aza-spiro[4.5]decan-8-yl)-N,N-dimethylacetamide] | 6.60
CNC(=O)C[C@]1(O)CC[C@]2(CCN(c3ccc(OCC(F)(F)F)cc3)C2=O)CC1 [Example 158, 2-((5α,8α)-8-Hydroxy-1-oxo-2-(4-(2,2,2-trifluoroethoxy)phenyl)-2-aza-spiro[4.5]decan-8-yl)-N-methylacetamide] | 6.47
O=C1N(c2ccc([C@@H](O)C(F)(F)F)cc2)CC[C@]12CC[C@@](O)(COCC(F)F)CC2 [Example 160, (5α,8α)-8-(2,2-Difluoro-ethoxymethyl)-8-hydroxy-2-[4-((R)-2,2,2-trifluoro-1-hydroxy-ethyl)-phenyl]-2-aza-spiro[4.5]decan-1-one] | 6.52
CCC[C@]1(O)CC[C@@]2(CCN(c3ccc(OC(C)C(F)(F)F)cc3)C2=O)CC1 (stereo partly drawn) [Example 163, (5α,8β)-8-Hydroxy-8-propyl-2-[4-(2,2,2-trifluoro-1-methyl-ethoxy)-phenyl]-2-aza-spiro[4.5]decan-1-one] | 6.10
CCC[C@]1(O)CC[C@]2(CCN(c3ccc(OCC(F)(F)F)nc3)C2=O)CC1 [Example 167, (5α,8α)-8-Hydroxy-8-propyl-2-[6-(2,2,2-trifluoro-ethoxy)-pyridin-3-yl]-2-aza-spiro[4.5]decan-1-one] | 7.40
CC[C@]1(O)CC[C@]2(CCN(c3ccc(OCC(F)(F)F)nc3)C2=O)CC1 [Example 168, (5α,8α)-8-Ethyl-8-hydroxy-2-[6-(2,2,2-trifluoro-ethoxy)-pyridin-3-yl]-2-aza-spiro[4.5]decan-1-one] | 7.15
CC[C@]1(O)CC[C@]2(CCN(c3ccc(CCC(F)(F)F)cc3)C2=O)CC1 [Example 169, (5α,8α)-8-Ethyl-8-hydroxy-2-[4-(3,3,3-trifluoro-propyl)-phenyl]-2-aza-spiro[4.5]decan-1-one] | 7.30
CCC[C@]1(O)CC[C@]2(CCN(c3ccc(CCC(F)(F)F)cc3)C2=O)CC1 [Example 170, (5α,8α)-8-Hydroxy-8-propyl-2-[4-(3,3,3-trifluoro-propyl)-phenyl]-2-aza-spiro[4.5]decan-1-one] | 7.30

Now from value to compound:

pIC50 | Structure (SMILES)
7.70 | CC(C)[C@]1(O)CC[C@]2(CCN(c3ccc(O[C@H](C)C(F)(F)F)nc3)C2=O)CC1 [Example 150, (5α,8α)-8-Hydroxy-8-isopropyl-2-[6-((R)-2,2,2-trifluoro-1-methyl-ethoxy)-pyridin-3-yl]-2-aza-spiro[4.5]decan-1-one]
7.52 | COC[C@]1(O)CC[C@]2(CCN(c3ccc(CC(F)(F)F)cc3)C2=O)CC1 [Example 154, (5α,8α)-8-Hydroxy-8-methoxymethyl-2-[4-(2,2,2-trifluoro-ethyl)-phenyl]-2-aza-spiro[4.5]decan-1-one]
8.05 | O=C1N(c2ccc([C@@H](O)C(F)(F)F)cc2)CC[C@]12CC[C@@](O)(COCC(F)(F)F)CC2 [Example 155, (5α,8α)-8-Hydroxy-8-(2,2,2-trifluoro-ethoxymethyl)-2-[4-((R)-2,2,2-trifluoro-1-hydroxy-ethyl)-phenyl]-2-aza-spiro[4.5]decan-1-one]
7.70 | CC(C)OC[C@]1(O)CC[C@]2(CCN(c3ccc([C@@H](O)C(F)(F)F)cc3)C2=O)CC1 [Example 159, (5α,8α)-8-Hydroxy-8-isopropoxymethyl-2-[4-((R)-2,2,2-trifluoro-1-hydroxy-ethyl)-phenyl]-2-aza-spiro[4.5]decan-1-one]
8.00 | CCc1ccc(CCN2CC[C@]3(CC[C@@](O)(C(C)C)CC3)C2=O)cc1 [Example 161, (5α,8α)-2-(4-Ethylphenethyl)-8-hydroxy-8-isopropyl-2-aza-spiro[4.5]decan-1-one]
7.70 | CCC[C@]1(O)CC[C@]2(CCN(c3ccc(OC(C)C(F)(F)F)cc3)C2=O)CC1 (stereo partly drawn) [Example 164, (5α,8α)-8-Hydroxy-8-propyl-2-[4-(2,2,2-trifluoro-1-methyl-ethoxy)-phenyl]-2-aza-spiro[4.5]decan-1-one]
7.70 | CCC[C@]1(O)CC[C@]2(CCN(c3ccc(O[C@@H](C)C(F)(F)F)cc3)C2=O)CC1 [Example 164a, (5α,8α)-8-Hydroxy-8-propyl-2-[4-((S)-2,2,2-trifluoro-1-methyl-ethoxy)-phenyl]-2-aza-spiro[4.5]decan-1-one]
7.70 | CCC[C@]1(O)CC[C@]2(CCN(c3ccc(O[C@H](C)C(F)(F)F)cc3)C2=O)CC1 [Example 164b, (5α,8α)-8-Hydroxy-8-propyl-2-[4-((R)-2,2,2-trifluoro-1-methyl-ethoxy)-phenyl]-2-aza-spiro[4.5]decan-1-one]
7.70 | CC[C@]1(O)CC[C@]2(CCN(c3ccc(OC(C)C(F)(F)F)cc3)C2=O)CC1 (stereo partly drawn) [Example 165, (5α,8α)-8-Ethyl-8-hydroxy-2-[4-(2,2,2-trifluoro-1-methyl-ethoxy)-phenyl]-2-aza-spiro[4.5]decan-1-one]
7.70 | CC[C@]1(O)CC[C@]2(CCN(c3ccc(O[C@@H](C)C(F)(F)F)cc3)C2=O)CC1 [Example 165a, (5α,8α)-8-Ethyl-8-hydroxy-2-[4-((S)-2,2,2-trifluoro-1-methyl-ethoxy)-phenyl]-2-aza-spiro[4.5]decan-1-one]
7.52 | CC[C@]1(O)CC[C@]2(CCN(c3ccc(O[C@H](C)C(F)(F)F)cc3)C2=O)CC1 [Example 165b, (5α,8α)-8-Ethyl-8-hydroxy-2-[4-((R)-2,2,2-trifluoro-1-methyl-ethoxy)-phenyl]-2-aza-spiro[4.5]decan-1-one]
7.40 | O=C1N(c2ccc(OCC(F)(F)F)nc2)CC[C@]12CC[C@@](O)(CCC(F)(F)F)CC2 [Example 166, (5α,8α)-8-Hydroxy-2-[6-(2,2,2-trifluoro-ethoxy)-pyridin-3-yl]-8-(3,3,3-trifluoro-propyl)-2-aza-spiro[4.5]decan-1-one]
7.52 | CC[C@]1(O)CC[C@]2(CCN(c3ccc(O[C@@H](C)C(F)(F)F)nc3)C2=O)CC1 [Example 171, (5α,8α)-8-Ethyl-8-hydroxy-2-[6-((S)-2,2,2-trifluoro-1-methyl-ethoxy)-pyridin-3-yl]-2-aza-spiro[4.5]decan-1-one]
7.70 | CCC[C@]1(O)CC[C@]2(CCN(c3ccc(O[C@@H](C)C(F)(F)F)nc3)C2=O)CC1 [Example 172, (5α,8α)-8-Hydroxy-8-propyl-2-[6-((S)-2,2,2-trifluoro-1-methyl-ethoxy)-pyridin-3-yl]-2-aza-spiro[4.5]decan-1-one]
